Assay [1] relates to A549 cells (Kras G12S mutation). Description: Cell proliferation inhibition experiment, 3D model, CellTiter-Glo (A549). Conditions: A549, 3D sphere plate, 5 days, 2% FBS. Format: cell-based, human. The procedure: (§1) NCI-H358 was a human non-small cell lung cancer cell line with Kras G12C mutation, cultured in 10% FBS RPMI-1640 medium; A549 was a human lung adenocarcinoma cell line with Kras G12S mutation, cultured in 10% FBS F-12K medium. The cells in the logarithmic growth phase was taken, digested with trypsin EDTA, collected and counted, and H358 was adjusted to 1.8E4 cells/ml using 2% FBS RPMI-1640 medium, and A549 was adjusted to 8.9E3 cells/ml using 2% FBS F-12K medium; 800 (45 μl) H358 or 400 (45 μl) A549 cells were seeded in a 384-well sphere plate respectively, cultured overnight to establish a 3D cell model. DMSO was used to prepare 1000× compound 3.16-fold gradient concentration stock solution, and 2% FBS medium was used to dilute 100-fold to 10× compound stock solution. On the second day after cell seeding, 5 μl 10× compound stock solution was added to each cell culture well, the final concentration was 1×, and DMSO content was 0.1%. DMSO was used as the experimental control (control) and 2% FBS medium as the blank control (blank). After the compound and cells were added and cultured for 5 days, 25 μl CellTiter-Glo working solution was added to each well, mixed at 400 rpm and incubated for 30 minutes. After 30 minutes at room temperature, 40 μl of the mixture was transferred to a 384-well plate with a non-transparent white bottom, the luminescence chemiluminescence value was read, and the cells proliferation inhibition rate IR (%)=(RLU control-RLU compound)/(RLU control-RLU blank)×100% was calculated, Prism 6 four-parameter method was used to fit the compound's gradient dilution concentration and the corresponding cell proliferation inhibition rate, and the IC50 value was calculate.

Assay [2] deals with NCI-H358 cells (Kras G12C mutation). The assay can be described thus: Cell proliferation inhibition experiment, 3D model, CellTiter-Glo (NCI-H358). Format: cell-based, human. As to conditions: NCI-H358, 3D sphere plate, 5 days, 2% FBS. The procedure:
as §1

Turning to `C=CC(=O)N1CCN2c3nc(=O)n(-c4c(C)ccnc4C(C)C)c4nc(-c5c(O)cccc5F)c(Cl)c(c34)OC[C@H]2C1` (single isomer, unassigned) [Compound Z23-2], the concentration for half-maximal inhibition (IC50) is over 10000 nM in assay [1] and 21 nM in assay [2].
For `[2H]C([2H])([2H])Oc1cccc(F)c1-c1nc2c3c(nc(=O)n2-c2c(C)ccnc2C(C)C)N2CCN(C(=O)C=C)C[C@@H]2COc3c1F` (single isomer, unassigned) [Compound Z100-2], in that order: over 10000 nM and 31 nM.
In the case of `C=CC(=O)N1CCN2c3nc(=O)n(CC4CC4)c4cc(-c5c(O)cccc5F)c(Cl)c(c34)OC[C@@H]2C1` [Compound Z37-2], the IC50 in assay [1] (Homo sapiens, A549, 120 h) came to 29500 nM; in assay [2] (Homo sapiens, NCI-H358, 120 h), 276 nM.
For the compound `C=CC(=O)N1CCN2c3nc(=O)n(-c4c(C)ccnc4C(C)C)c4nc(-c5ccc(F)cc5F)c(Cl)c(c34)OC[C@@H]2C1` (atropisomer, axis not shown) [Compound Z49-2], the IC50 in assay [1] is over 10000 nM; in assay [2] it was 113 nM.
For `C=CC(=O)N1CCN2c3nc(=O)n(-c4c(C)ncnc4C(C)C)c4cc(-c5c(C)ccc6[nH]ncc56)c(Cl)c(c34)OC[C@@H]2C1` (single isomer, unassigned) [Compound Z45-4], in that order: over 10000 nM and 65 nM.
For `C=CC(=O)N1CCN2c3nc(=O)n(-c4c(C)ccnc4C(C)C)c4nc(-c5cc(F)cc(F)c5O)c(Cl)c(c34)OC[C@@H]2C1` [Compound Z54], the IC50 in assay [1] (Homo sapiens, A549, 120 h) is over 10000 nM; in assay [2] (Homo sapiens, NCI-H358, 120 h) it was 66 nM.
With `C=CC(=O)N1CCN2c3nc(=O)n(-c4c(C)ccnc4C(C)C)c4nc(-c5c(F)cc(F)cc5F)c(Cl)c(c34)OC[C@@H]2C1` [Compound Z56], the half-maximal inhibitory concentration (IC50) in assay [1] (Homo sapiens, A549, 120 h) is over 10000 nM; in assay [2] (Homo sapiens, NCI-H358, 120 h), 11 nM.
With `C=CC(=O)N1CCN2c3nc(=O)n(-c4c(C)ccnc4C(C)C)c4nc(-c5ccc(F)cc5)c(Cl)c(c34)OC[C@@H]2C1` [Compound Z50], the IC50 in assay [1] (Homo sapiens, A549, 120 h) was over 10000 nM; in assay [2] (Homo sapiens, NCI-H358, 120 h) it was 50 nM.
`C=CC(=O)N1CCN2c3nc(=O)n(-c4c(C)ccnc4C(C)C)c4nc(-c5ccccc5C(C)C)c(Cl)c(c34)OC[C@@H]2C1` [Compound Z62]: the IC50 was over 10000 nM in assay [1] (Homo sapiens, A549, 120 h) and 6 nM in assay [2] (Homo sapiens, NCI-H358, 120 h).
For the compound `C=CC(=O)N1CCN2c3nc(=O)n(-c4c(C)ccnc4C(C)C)c4nc(-c5c(O)cccc5F)cc(c34)OC[C@H]2C1` [Compound Z25, (R)-7-acryloyl-2-(2-fluoro-6-hydroxyphenyl)-12-(2-isopropyl-4-methylpyridin-3-yl)-5,5a,6,7,8,9-hexahydro-4-oxo-1,7,9a,10,12-pentazabenzo[4,5]cyclohepta[1,2,3-de]naphthalen-11 (12H)-one], the IC50 in assay [1] came out at 24200 nM; in assay [2], 94 nM.
For the compound `C=CC(=O)N1CCN2c3nc(=O)n(C4CC4)c4cc(-c5c(C)ccc6[nH]ncc56)cc(c34)OCCC2C1` (stereo not drawn) [Compound Z21, 2-acryloyl-8-cyclopropyl-10-(5-methyl-1H-indazol-4-yl)-1,3,4,13,14,14a-hexa hydro-2H-pyrazino[1′,2′:5,6][1,5]oxazolidine[4,3,2-de]quinazolin-7 (8H)-one], the IC50 in assay [1] (Homo sapiens, A549, 120 h) was over 10000 nM; in assay [2] (Homo sapiens, NCI-H358, 120 h), 283 nM.
Take `C=CC(=O)N1CCN2c3nc(=O)n(-c4c(C)ccnc4C(C)C)c4nc(-c5c(O)cccc5F)c(Cl)c(c34)OC[C@H]2C1` [Compound Z23, (5aR)-7-acryloyl-3-chloro-2-(2-fluoro-6-hydroxyphenyl)-12-(2-isopropyl-4-methylpyridin-3-yl)-5,5a,6,7,8,9-hexahydro-4-oxo-1,7,9a,10,12-pentazabenzo[4,5] cyclohepta[1,2,3-de]naphthalen-11 (12H)-one]: the IC50 was over 10000 nM in assay [1] (Homo sapiens, A549, 120 h) and 2 nM in assay [2] (Homo sapiens, NCI-H358, 120 h).
With `C=CC(=O)N1CCN2c3nc(=O)n(-c4c(C#N)cnn4C(C)(C)C)c4nc(-c5ccccc5F)c(Cl)c(c34)OC[C@H]2C1` (single isomer, unassigned) [Compound Z109-2], the 50% inhibitory concentration (IC50) in assay [1] amounted to 9780 nM; in assay [2], 106 nM.
Turning to `C=CC(C)N1CCN2c3nc(=O)n(-c4c(C)ccnc4C(C)C)c4nc(-c5cnccc5C)c(Cl)c(c34)OC[C@@H]2C1` (stereo partly drawn) [Compound Z81], the IC50 in assay [1] (Homo sapiens, A549, 120 h) was over 10000 nM; in assay [2] (Homo sapiens, NCI-H358, 120 h), 204 nM.
The corresponding values for `C=CC(=O)N1CCN2c3nc(=O)n(C4CC4)c4cc(-c5c(O)cccc5F)cc(c34)OCCC2C1` (stereo not drawn) [Compound Z28] are over 10000 nM and 184 nM.
For `C=CC(=O)N1CCN2c3nc(=O)n(-c4c(C)ccnc4C(C)C)c4nc(-c5cccc(C(F)(F)F)c5F)c(Cl)c(c34)OC[C@@H]2C1` (atropisomer, axis not shown) [Compound Z57-1], the IC50 is over 10000 nM in assay [1] and 111 nM in assay [2].
`C=CC(=O)N1CCN2c3nc(=O)n(-c4c(C)ccnc4C(C)C)c4cc(-c5c(C)ccc6[nH]ncc56)cc(c34)OC[C@H]2C1` [Compound Z18, (R)-2-acryloyl-8-(2-isopropyl-4-methylpyridin-3-yl)-10-(5-methyl-1H-indazol-4-yl)-1,2,3,4,13,13a-hexahydropyrazino[2′,1′:3,4][1,4]oxazepine[5,6,7-de]quinazolin-7 (8H)-one]: the IC50 was 12400 nM in assay [1] (Homo sapiens, A549, 120 h) and 107 nM in assay [2] (Homo sapiens, NCI-H358, 120 h).
Regarding `C=CC(=O)N1CCN2c3nc(=O)n(-c4c(C)ccnc4C(C)C)c4cc(-c5c(O)cccc5F)cc(c34)OC[C@@H]2C1` [Compound Z15, (S)-2-acryloyl-10-(2-fluoro-6-hydroxyphenyl)-8-(2-isopropyl-4-methylpyridin-3-yl)-1,2,3,4,13,13a-hexahydropyrazino[2′,1′:3,4][1,4]oxazepine[5,6,7-de]quinazolin-7 (8H)-one], the IC50 in assay [1] is over 10000 nM; in assay [2], 36 nM.
With `C=CC(=O)N1CCN2c3nc(=O)n(-c4c(C)ccnc4C(C)C)c4cc(-c5c(C)ccc6[nH]ncc56)cc(c34)OCCC2C1` (stereo not drawn) [Compound Z22], the half-inhibitory concentration (IC50) is over 10000 nM in assay [1] (Homo sapiens, A549, 120 h) and 118 nM in assay [2] (Homo sapiens, NCI-H358, 120 h).
As for `C=CC(=O)N1CCN2c3nc(=O)n(-c4c(C)ccnc4C(C)C)c4nc(-c5c(O)cccc5F)cc(c34)OC[C@H]2C1` (single isomer, unassigned) [Compound Z25-1], the IC50 was over 10000 nM in assay [1] and 46 nM in assay [2].
Turning to `C=CC(=O)N1CCN2c3nc(=O)n(CC(C)C)c4cc(-c5c(O)cccc5F)c(Cl)c(c34)OC[C@@H]2C1` [Compound Z32], the IC50 in assay [1] (Homo sapiens, A549, 120 h) came to 23500 nM; in assay [2] (Homo sapiens, NCI-H358, 120 h) it was 308 nM.
As for `C=CC(=O)N1CCN2c3nc(=O)n(-c4c(C)ccnc4C(C)C)c4cc(-c5c(O)cccc5F)c(Cl)c(c34)OC[C@H]2C1` (single isomer, unassigned) [Compound Z29-3], the IC50 was over 10000 nM in assay [1] and 165 nM in assay [2].
Turning to `C=CC(=O)N1CCN2c3nc(=O)n(-c4c(C)ccnc4C(C)C)c4nc(-c5cccnc5C)c(Cl)c(c34)OC[C@@H]2C1` [Compound Z78], the IC50 in assay [1] (Homo sapiens, A549, 120 h) was over 10000 nM; in assay [2] (Homo sapiens, NCI-H358, 120 h), 254 nM.
Consider `C=CC(=O)N1CCN2c3nc(=O)n(-c4c(C)ncnc4C(C)C)c4cc(-c5c(C)ccc6[nH]ncc56)c(Cl)c(c34)OC[C@@H]2C1` (single isomer, unassigned) [Compound Z45-1], for which the IC50 in assay [1] (Homo sapiens, A549, 120 h) is over 10000 nM; in assay [2] it was 3 nM.
On to `C=CC(=O)N1CCN2c3nc(=O)n(-c4c(C)ccnc4C(C)C)c4cc(-c5c(C)ccc6[nH]ncc56)cc(c34)OC[C@@H]2C1` (atropisomer, axis not shown) [Compound Z19-1], for which the concentration for half-maximal inhibition (IC50) in assay [1] was 6990 nM; in assay [2], 321 nM.
Consider `C=CC(=O)N1CCN2c3nc(=O)n(-c4c(C)ccnc4C(C)C)c4cc(-c5ncccc5F)c(Cl)c(c34)OC[C@@H]2C1` [Compound Z35], for which the IC50 in assay [1] (Homo sapiens, A549, 120 h) was over 10000 nM; in assay [2] (Homo sapiens, NCI-H358, 120 h), 164 nM.
As for `C=CC(=O)N1CCN2c3nc(=O)n(-c4c(C)ccnc4C(C)C)c4nc(-c5c(F)cccc5C(F)(F)F)c(Cl)c(c34)OC[C@@H]2C1` [Compound Z70], the IC50 in assay [1] (Homo sapiens, A549, 120 h) was over 10000 nM; in assay [2] (Homo sapiens, NCI-H358, 120 h), 42 nM.
Regarding `C=CC(=O)N1CCN2c3nc(=O)n(-c4c(C)ccnc4C(C)C)c4cc(-c5c(C)ccc6[nH]ncc56)cc(c34)OC[C@@H]2C1` [Compound Z19, (S)-2-acryloyl-8-(2-isopropyl-4-methylpyridin-3-yl)-10-(5-methyl-1H-indazol-4-yl)-1,2,3,4,13,13a-hexahydropyrazino[2′,1′:3,4][1,4]oxazepine[5,6,7-de]quinazolin-7 (8H)-one], the IC50 in assay [1] is 46400 nM; in assay [2] it was 68 nM.
For `C=CC(=O)N1CCN2c3nc(=O)n(-c4c(C)ccnc4C(C)C)c4nc(-c5ccccc5F)c(Cl)c(c34)OC[C@@H]2C1` (single isomer, unassigned) [Compound Z46-1], the IC50 in assay [1] (Homo sapiens, A549, 120 h) came out at 8360 nM; in assay [2], 89 nM.
Consider `C=CC(=O)N1CCN2c3nc(=O)n(-c4ccccc4C(C)C)c4cc(-c5c(C)ccc6[nH]ncc56)c(Cl)c(c34)OCC2C1` (stereo not drawn) [Compound Z1], for which the IC50 turned out to be 7450 nM in assay [1] (Homo sapiens, A549, 120 h) and 2 nM in assay [2] (Homo sapiens, NCI-H358, 120 h).

The record behind these values is patent US20220251109A1, “OXAAZAQUINAZOLINE-7(8H)-KETONE COMPOUND, PREPARATION METHOD THEREFOR AND PHARMACEUTICAL APPLICATION THEREOF” (GENFLEET THERAPEUTICS (SHANGHAI) INC., priority 2019, published 2022).
